Test results published in patent US11179722B2, “Microfluidic method for handling microdrops” (ECOLE POLYTECHNIQUE, priority 2016, dated 2021).

Tested on: rat hepatoma, H4IIEC3 cells
Format: cell-based
Description: An experiment was conducted to determine, in a single microfluidic system, the concentration beyond which a medicinal product (acetaminophen) becomes toxic to liver cells (rat hepatoma, H4IIEC3 cells).
The microfluidic chamber used containing 252 identical traps on 2 cm^2 in FIGS. 5A and 5B.
The first microdrops 20 of agarose that is liquid at 37° C. (ultra-low gelling), at 0.9 wt % diluted in culture medium containing H4IIEC3 cells, were trapped in the first trapping zones 15, the second trapping zone 18 remaining free. The first microdrops 20 were then cultured for one day to allow the cells to adhere to one another to form a spheroid by first microdrops 20. […]
By taking a fluorescence image before fusion, the different levels of fluorescence that are correlated with the concentration of medicinal product in the second microdrops 25 could be identified. […]
The chamber was perfused with HFE-7500 (fluorinated oil) containing 1H,1H,2H,2H-perfluorooctan-1-ol at a concentration of 20 vol % in order to fuse the microdrops in contact. […] By taking an image of the final matrix, the spheroids whose viability was affected most could be determined. […] Thus, correlating the result for viability and the concentration of acetaminophen in the second microdrops, it could be determined that the range of toxicity of acetaminophen on these hepatic cells is between 10 and 30 mmol/L for a static exposure of 1 day.

Compound: CC(=O)Nc1ccc(O)cc1 [acetaminophen]
- cell survival as a function of acetaminophen concentration: the higher the concentration of acetaminophen, the fewer cells survive
- range of toxicity of acetaminophen on these hepatic cells (rat, 1 day): 10 and 30
